Consider 28 molecules from patent publication US12023333B2, “Phenyl-sulfamoyl.benzoyc acids as ERAP1 modulators” (GREY WOLF THERAPEUTICS LIMITED, priority 2019, dated 2024).

SMILES strings stand for the structures. Bounds are passed on as bounds.

Usually IC50 stands for the point on the concentration scale where inhibition reaches its midpoint.

The target of the experiment is T1, Purified ERAP1(37-941)-10His (ERAP1) (Homo sapiens, UniProt Q9NZ08).
T1 construct: Purified ERAP1(37-941)-10His (ERAP1); 10His (C)
T1 sequence (Q9NZ08 37-941): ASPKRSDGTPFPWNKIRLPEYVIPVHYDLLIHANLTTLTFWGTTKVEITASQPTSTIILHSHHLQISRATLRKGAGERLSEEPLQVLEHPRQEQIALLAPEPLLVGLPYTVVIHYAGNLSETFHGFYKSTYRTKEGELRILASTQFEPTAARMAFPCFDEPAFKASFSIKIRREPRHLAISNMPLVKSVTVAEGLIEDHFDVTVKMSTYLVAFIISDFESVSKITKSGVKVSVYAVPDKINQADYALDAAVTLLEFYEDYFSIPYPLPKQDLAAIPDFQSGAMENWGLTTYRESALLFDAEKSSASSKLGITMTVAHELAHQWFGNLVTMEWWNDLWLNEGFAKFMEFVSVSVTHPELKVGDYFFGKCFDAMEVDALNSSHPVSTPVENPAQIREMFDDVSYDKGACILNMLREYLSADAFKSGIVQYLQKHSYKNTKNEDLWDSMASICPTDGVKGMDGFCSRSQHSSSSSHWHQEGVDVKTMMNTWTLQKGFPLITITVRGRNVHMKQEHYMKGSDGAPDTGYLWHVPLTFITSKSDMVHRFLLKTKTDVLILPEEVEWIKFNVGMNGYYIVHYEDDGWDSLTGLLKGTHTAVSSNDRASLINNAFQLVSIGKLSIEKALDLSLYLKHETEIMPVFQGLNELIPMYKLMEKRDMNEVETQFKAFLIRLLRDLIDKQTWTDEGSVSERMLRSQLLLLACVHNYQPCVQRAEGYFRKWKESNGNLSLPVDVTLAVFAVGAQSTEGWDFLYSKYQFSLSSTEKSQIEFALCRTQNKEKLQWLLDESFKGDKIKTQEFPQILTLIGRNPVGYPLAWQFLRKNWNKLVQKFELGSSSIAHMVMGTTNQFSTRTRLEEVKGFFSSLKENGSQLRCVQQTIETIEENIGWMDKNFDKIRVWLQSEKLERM
As to the kind of experiment: ERAP1 mediated hydrolysis of an amide substrate measured in a biochemical system (10-mer decapeptide substrate). Conditions: 10-mer substrate, 23° C. for 1 h, excitation 279 nm and emission 355 nm; read-out: IC50 vs Decapeptide WRVYEKC(Dnp)ALK-acid (where Dnp is Dinitrophenyl maleimide) (10-mer). As for the experimental part:
Biological Assay 1: ERAP1 Mediated Hydrolysis of an Amide Substrate Measured in a Biochemical System
1× Assay buffer (AB): 25 mM Bis-tris propane, 0.05% w/v Hydroxypropylmethylcellulose pH 7.75 made with Optima grade water
Decapeptide WRVYEKC(Dnp)ALK-acid (where Dnp is Dinitrophenyl maleimide) (10-mer) L-Leucine 7-amido-4-methylcoumarin (L-AMC)
12.5 μL ERAP1 enzyme in 1×AB was combined with 250 nL test compound in DMSO. 12.5 μL of either 240 μM L-AMC in 1×AB or 100 μM 10-mer in 1×AB was added to the reaction and incubated at 23° C. for 1 h. For detection, plates were read at excitation 365 nm and emission 442 nm (L-AMC) or excitation 279 nm and emission 355 nm (10-mer). Compound IC50 was determined using a 4 parameter equation.
Consider `COc1ccc(C(=O)O)cc1S(=O)(=O)Nc1cc(C(F)(F)F)ccc1-n1cccc1` [Example 35, 3-(N-(2-(pyrrol-1-yl)-5-(trifluoromethyl)phenyl)sulfamoyl)-4-methoxybenzoic acid], for which the half-inhibitory concentration (IC50) was under 0.5 µM.
The same measure for `CCc1ccc(C(=O)O)cc1S(=O)(=O)Nc1cc(C(F)(F)F)ccc1-n1cccc1` [Example 36, 3-(N-(2-(pyrrol-1-yl)-5-(trifluoromethyl)phenyl)sulfamoyl)-4-ethylbenzoic acid]: under 0.5 µM; for `CCc1ccc(C(=O)O)cc1S(=O)(=O)Nc1cc(C(F)(F)F)ccc1-c1ccccn1` [Example 37, 4-ethyl-3-(N-(2-(pyridin-2-yl)-5-(trifluoromethyl)phenyl)sulfamoyl)benzoic acid]: under 0.5 µM.
The same measure for `CCc1ccc(C(=O)O)cc1S(=O)(=O)Nc1cc(C#N)ccc1-c1ccccn1` [Example 38, 3-(N-(5-cyano-2-(pyridin-2-yl)phenyl)sulfamoyl)-4-ethylbenzoic acid]: under 0.5 µM; for `CCc1ccc(C(=O)O)cc1S(=O)(=O)Nc1cc(S(C)(=O)=O)ccc1-c1cccc(C#N)c1` [Example 39, 3-(N-(3′-cyano-4-(methylsulfonyl)-[1,1′-biphenyl]-2-yl)sulfamoyl)-4-ethylbenzoic acid]: under 0.5 µM; for `CCc1ccc(C(=O)O)cc1S(=O)(=O)Nc1cc(C#N)ccc1-c1ccccc1` [Example 40, 3-(N-(4-cyano-[1,1′-biphenyl]-2-yl)sulfamoyl)-4-ethylbenzoic acid]: under 0.5 µM.
In the case of `CCc1ccc(C(=O)O)cc1S(=O)(=O)Nc1cc(C#N)ccc1-c1cccc(F)c1` [Example 41] it was under 0.5 µM; in that of `CCc1ccc(C(=O)O)cc1S(=O)(=O)Nc1cc(C#N)ccc1-c1cccc(C#N)c1` [Example 42, 3-(N-(3′,4-dicyano-[1,1′-biphenyl]-2-yl)sulfamoyl)-4-ethylbenzoic acid], under 0.5 µM; in that of `CCc1ccc(C(=O)O)cc1S(=O)(=O)Nc1cc(C#N)ccc1-c1cccs1` [Example 43, 3-(N-(5-cyano-2-(thiophen-2-yl)phenyl)sulfamoyl)-4-ethylbenzoic acid], under 0.5 µM.
With `COc1ccc(C(=O)O)cc1S(=O)(=O)Nc1cc(S(C)(=O)=O)ccc1-c1ccccn1` [Example 44, 4-methoxy-3-(N-(5-(methylsulfonyl)-2-(pyridin-2-yl)phenyl)sulfamoyl)benzoic acid], the half-inhibitory concentration (IC50) is under 0.5 µM.
In the case of `COc1ccc(C(=O)O)cc1S(=O)(=O)Nc1cc(C#N)ccc1-c1ccccn1` [Example 45, 3-(N-(5-cyano-2-(pyridin-2-yl)phenyl)sulfamoyl)-4-methoxybenzoic acid] it was under 0.5 µM.
In the case of `COc1ccc(C(=O)O)cc1S(=O)(=O)Nc1cc(C(F)(F)F)ccc1-c1cccc(Cl)c1` [Example 46, 3-(N-(3′-chloro-4-(trifluoromethyl)-[1,1′-biphenyl]-2-yl)sulfamoyl)-4-methoxybenzoic acid] it was under 0.5 µM; in that of `COc1ccc(C(=O)O)cc1S(=O)(=O)Nc1cc(C(F)(F)F)ccc1-c1ccc(C)cc1` [Example 47, 4-methoxy-3-(N-(4′-methyl-4-(trifluoromethyl)-[1,1′-biphenyl]-2-yl)sulfamoyl)benzoic acid], over 5 µM; in that of `COc1ccc(-c2ccc(C(F)(F)F)cc2NS(=O)(=O)c2cc(C(=O)O)ccc2OC)cc1` [Example 48, 4-methoxy-3-(N-(4′-methoxy-4-(trifluoromethyl)-[1,1′-biphenyl]-2-yl)sulfamoyl)benzoic acid], over 5 µM.
The same measure for `COc1ccc(C(=O)O)cc1S(=O)(=O)Nc1cc(C(F)(F)F)ccc1-c1ccc(Cl)cc1` [Example 49, 3-(N-(4′-chloro-4-(trifluoromethyl)-[1,1′-biphenyl]-2-yl)sulfamoyl)-4-methoxybenzoic acid]: under 0.5 µM.
Regarding `CCc1ccc(C(=O)O)cc1S(=O)(=O)Nc1cc(C(F)(F)F)ccc1-n1ccnc1` [Example 50, 3-(N-(2-(imidazol-1-yl)-5-(trifluoromethyl)phenyl)sulfamoyl)-4-ethylbenzoic acid], the IC50 was under 0.5 µM.
The same measure for `COc1ccc(C(=O)O)cc1S(=O)(=O)Nc1cc(C(F)(F)F)ccc1-c1ccccc1C(C)C` [Example 51, 3-(N-(2′-isopropyl-4-(trifluoromethyl)-[1,1′-biphenyl]-2-yl)sulfamoyl)-4-methoxybenzoic acid]: under 5 µM; for `CCc1ccc(C(=O)O)cc1S(=O)(=O)Nc1cc(-n2cnnn2)ccc1-c1ccccc1` [Example 52, 3-(N-(4-(tetrazol-1-yl)-[1,1′-biphenyl]-2-yl)sulfamoyl)-4-ethylbenzoic acid]: under 0.5 µM.
The same measure for `CCc1ccc(C(=O)O)cc1S(=O)(=O)Nc1cc(-n2cnnn2)ccc1-c1cccc(F)c1` [Example 53, 4-ethyl-3-(N-(3′-fluoro-4-(tetrazol-1-yl)-[1,1′-biphenyl]-2-yl)sulfamoyl) benzoic acid]: under 0.5 µM; for `CCc1ccc(C(=O)O)cc1S(=O)(=O)Nc1cc(S(C)(=O)=O)ccc1-c1cccnc1` [Example 54, 4-ethyl-3-(N-(5-(methylsulfonyl)-2-(pyridin-3-yl)phenyl)sulfamoyl) benzoic acid]: under 0.5 µM.
The same measure for `O=C(O)c1ccc(C2CC2)c(S(=O)(=O)Nc2cc(C(F)(F)F)ccc2-c2ccccc2)c1` [Example 55, 4-cyclopropyl-3-(N-(4-(trifluoromethyl)-[1,1′-biphenyl]-2-yl)sulfamoyl) benzoic acid]: under 0.5 µM.
In the case of `CCc1ccc(C(=O)O)cc1S(=O)(=O)Nc1cc(-n2cnnn2)ccc1-c1cccc(C#N)c1` [Example 56, 3-(N-(3′-cyano-4-tetrazol-1-yl-[1,1′-biphenyl]-2-yl)sulfamoyl)-4-ethylbenzoic acid], the 50% inhibitory concentration (IC50) was under 0.5 µM.
In the case of `CCc1ccc(C(=O)O)cc1S(=O)(=O)Nc1cc(C#N)ccc1-c1cccnc1` [Example 57, 3-(N-(5-cyano-2-(pyridin-3-yl)phenyl)sulfamoyl)-4-ethylbenzoic acid] it was under 0.5 µM; in that of `CCc1ccc(C(=O)O)cc1S(=O)(=O)Nc1cc(C(F)(F)F)ccc1-c1ccc(C)s1` [Example 58, 4-ethyl-3-(N-(2-(5-methylthiophen-2-yl)-5-(trifluoromethyl)phenyl)sulfamoyl)benzoic acid], under 0.5 µM.
In the case of `CCc1ccc(C(=O)O)cc1S(=O)(=O)Nc1cc(C(F)(F)F)ccc1-c1ccc(OC)s1` [Example 59, 4-ethyl-3-(N-(2-(5-methoxythiophen-2-yl)-5-(trifluoromethyl)phenyl)sulfamoyl)benzoic acid], the IC50 is under 0.5 µM.
The same measure for `COc1ccc(C(=O)O)cc1S(=O)(=O)Nc1cc(C#N)ccc1-c1ccccc1` [Example 60, 3-(N-(4-cyano-[1,1′-biphenyl]-2-yl)sulfamoyl)-4-methoxybenzoic acid]: under 0.5 µM; for `COc1ccc(C(=O)O)cc1S(=O)(=O)Nc1cc(C#N)ccc1-c1cccc(F)c1` [Example 61, 3-(N-(4-cyano-3′-fluoro-[1,1′-biphenyl]-2-yl)sulfamoyl)-4-methoxybenzoic acid]: under 0.5 µM; for `COc1ccc(C(=O)O)cc1S(=O)(=O)Nc1cc(C#N)ccc1-c1cccs1` [Example 62, 3-(N-(5-cyano-2-(thiophen-2-yl)phenyl)sulfamoyl)-4-methoxybenzoic acid]: under 0.5 µM.
